# Test results taken from BindingDB's records for doi:10.1111/cbdd.12887 (Josip Juraj Strossmayer University of Osijek, 2017).
# Target: T1, Dipeptidyl peptidase 3 (Homo sapiens, UniProt Q9NY33)
# T1 sequence (Q9NY33 whole entry): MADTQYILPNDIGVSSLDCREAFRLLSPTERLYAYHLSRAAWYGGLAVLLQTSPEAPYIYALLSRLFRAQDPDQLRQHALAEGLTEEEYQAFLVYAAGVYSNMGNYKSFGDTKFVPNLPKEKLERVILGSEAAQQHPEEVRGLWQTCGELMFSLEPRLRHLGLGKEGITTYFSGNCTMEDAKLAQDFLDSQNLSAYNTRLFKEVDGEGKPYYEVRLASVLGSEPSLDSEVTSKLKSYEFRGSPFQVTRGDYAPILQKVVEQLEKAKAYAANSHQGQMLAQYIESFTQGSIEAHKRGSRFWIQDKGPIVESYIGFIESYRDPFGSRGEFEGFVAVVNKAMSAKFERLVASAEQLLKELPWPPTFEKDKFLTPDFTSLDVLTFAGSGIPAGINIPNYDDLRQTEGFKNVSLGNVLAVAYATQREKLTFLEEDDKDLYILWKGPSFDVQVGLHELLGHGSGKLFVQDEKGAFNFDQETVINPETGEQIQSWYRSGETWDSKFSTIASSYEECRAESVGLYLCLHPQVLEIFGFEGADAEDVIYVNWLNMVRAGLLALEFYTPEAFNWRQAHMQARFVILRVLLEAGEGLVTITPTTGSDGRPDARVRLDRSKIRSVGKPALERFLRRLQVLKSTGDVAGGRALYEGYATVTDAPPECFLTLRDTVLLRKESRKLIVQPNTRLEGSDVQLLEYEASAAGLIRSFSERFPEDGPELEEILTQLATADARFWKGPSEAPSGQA
# Test: DPP III Enzyme Activity Assay
# Settings: pH 7.4; 37 °C
# Method: The inhibitory activity of flavonoids toward human DPP III was assayed in a 50 mM Tris-HCl buffer, pH 7.4. In brief, recombinant human DPP III (0.29 nM) was preincubated with increasing concentrations of flavonoid first for 1 min at 25°C and then for 3 min at 37°C. The enzymatic reaction was started with Arg-Arg-NA (40 μM) as a substrate, and after the 15 min incubation at 37°C in a water bath, the reaction was stopped and the absorbance was measured using the spectrophotometric method described above[Abramić et al., Biol. Chem. Hoppe-Seyler., 369:29]. The stock solutions of flavonoids were prepared daily in dimethyl sulfoxide (DMSO, Sigma-Aldrich).
row,SMILES,IC50 [µM]
1,O=c1c(O)c(-c2ccccc2)oc2cc(O)cc(O)c12 [norizalpinin],23.4
2,"O=c1c(O)c(-c2ccccc2)oc2ccc(O)cc12 [3,6-dihydroxy-2-phenyl-4H-chromen-4-one]",56.4
3,"O=c1cc(-c2ccccc2)oc2cc(O)cc(O)c12 [5,7-dihydroxy-2-phenyl-4H-chromen-4-one]",123
4,"O=c1c(O)c(-c2ccc(O)cc2O)oc2cc(O)cc(O)c12 [2-(2,4-dihydroxyphenyl)-3,5,7-trihydroxychromen-4-one]",85
5,O=c1c(-c2ccc(O)cc2)coc2cc(O)cc(O)c12 [Prunetol],36.6
6,"O=c1c(O)c(-c2ccccc2)oc2cc(O)ccc12 [3,7-dihydroxy-2-phenyl-4H-chromen-4-one]",98
7,"O=c1cc(-c2ccc(O)c(O)c2)oc2cc(O)cc(O)c12 [2-(3,4-dihydroxyphenyl)-5,7-dihydroxy-4H-chromen-4-one]",22
8,"O=c1c(O)c(-c2ccc(O)c(O)c2)oc2cc(O)ccc12 [2-(3,4-dihydroxyphenyl)-3,7-dihydroxy-chromen-4-one]",24.9
9,O=C1C[C@@H](c2ccccc2)Oc2ccccc21 [Flavanone],437
10,O=c1c(O)c(-c2ccccc2)oc2ccccc12 [3-hydroxy-2-phenyl-4H-chromen-4-one],188
11,"O=c1c(O)c(-c2ccc(O)c(O)c2)oc2cc(O)cc(O)c12 [2-(3,4-dihydroxyphenyl)-3,5,7-trihydroxy-chromone;hydrate]",74.1
12,O=c1cc(-c2ccccc2)oc2ccccc12 [flavone],293
13,O=c1c(O)c(-c2ccc(O)cc2)oc2cc(O)cc(O)c12,32.9
14,O=c1cc(-c2ccccc2)oc2ccc(O)cc12 [6-hydroxy-2-phenyl-4H-chromen-4-one],82.2
15,"O=c1cc(-c2ccc(O)cc2)oc2cc(O)cc(O)c12 [Naringenin, 18]",54
